The record followed here is patent publication US5395836A, “8-tricycloalkyl xanthine derivatives” (Kyowa Hakko Kogyo Co., Ltd., priority 1993, dated 1995).

Structures are written as SMILES.

One may read the Ki as a dissociation constant, usually derived from enzyme kinetics or from competition with a known ligand.

One test concerns the target T1, adenosine A1 receptor (Rattus norvegicus, UniProt P25099).
T1 construct: from tissue; host or cells: rat corpus striatum, washed membrane suspension
T1 sequence (P25099 1-326): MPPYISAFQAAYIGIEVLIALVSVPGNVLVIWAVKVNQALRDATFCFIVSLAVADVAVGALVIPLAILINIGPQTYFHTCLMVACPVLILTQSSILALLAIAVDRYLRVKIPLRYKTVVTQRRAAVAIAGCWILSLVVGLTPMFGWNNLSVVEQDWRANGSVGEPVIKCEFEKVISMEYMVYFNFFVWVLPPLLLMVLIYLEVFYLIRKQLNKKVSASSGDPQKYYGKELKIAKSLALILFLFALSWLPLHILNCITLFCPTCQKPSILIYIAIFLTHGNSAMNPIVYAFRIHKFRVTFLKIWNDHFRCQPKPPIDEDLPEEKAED
Kind of test: Adenosine Receptor Antagonizing Activity (Adenosine A1 Receptor Binding Test). The note with it: rat corpus striatum; 3H-CHA 1.1 nM; 25° C., 90 min; Cheng-Prusoff. The procedure: The test was conducted according to the method of Bruns et al. [Proc. Natl. Acad. Sci. U.S.A., 77., 5547 (1980)] with slight modification.
Corpus striatum of a rat was suspended in ice-cooled 50 mM Tris hydroxymethyl aminomethane hydrochloride (Tris HCl) buffer (pH 7.7) by using Polytron homogenizer (manufactured by Kinematicas Co.). The suspension was centrifuged (50,000×g, 10 minutes), and the precipitate was suspended again in the same amount of 50 mM Tris HCl buffer. The suspension was centrifuged under the same conditions, and the final precipitate was suspended once again in 50 mM Tris HCl buffer to give a tissue concentration of 100 mg (wet weight)/ml. The tissue suspension was allowed to stand in the presence of 0.02 unit/mg tissue of adenosine deaminase (manufacture by Sigma Co.) at 37° C. for 30 minutes. The tissue suspension was centrifuged (50,000×g, 10 minutes) and to the obtained precipitates was added 50 mM Tris HCl buffer to give a tissue concentration of 10 mg (wet weight)/ml.
To 1 ml of the tissue suspension thus prepared, were added 50 μl of cyclohexyladenosine labeled with tritium (^3 H-CHA: 27 Ci/mmol, manufactured by New England Nuclear) (final concentration: 1.1 nM), and 50 μl of a test compound. The resulting mixture was allowed to stand at 25° C. for 90 minutes and then rapidly filtered by suction through a glass fiber filter (GF/C, manufactured by Whatman Co.). The filter was immediately washed three times with 5 ml each of ice-cooled 50 mM Tris HCl buffer, and transferred to a vial, and scintillator (EX-H by Wako Pure Chemical Industries, Ltd.) was added thereto. The radioactivity on the filter was determined with a liquid scintillation counter (manufactured by Packard Instrument Co.).
The inhibition rate (Ki value) of the test compound against the binding of A1 receptors (^3 H-CHA binding) was calculated by the equation of Cheng-Prusoff. [formula]

The next test can be described thus: Diuretic Effect. The format is in vivo, rat (Wistar). The note with it: po, 4 hours; for Increase in amount of K+ excreted Δ(%) / Increase in amount of Na+ excreted Δ(%) / Increase in amount of urine Δ(%): control 0; for Na+/K+: control 1.00. The procedure:
The experiment was performed by using Wistar rats (male; 150 to 300 g). The rats were starved for 18 hours prior to the administration of a test compound (n=4 to 5). After test compounds were dissolved in 0.4% methanol, 1% dimethylsulfoxide and 0.01N sodium hydroxide/physiological saline, and administered intravenously, the physiological saline (25 ml/kg) was orally administered. Alternatively, test compounds dissolved in the physiological saline (25 ml/kg) was orally administered to the rats. Urine was collected from the rats during 4 hours after the oral administration, and urine volume was measured by a graduated measuring cylinder, and the electrolytes in the urine (Na^+ and K^+) were determined by flame photometer (775 A manufactured by Hitachi, Ltd.).

Test [1] can be described thus: Renal-protecting Effect (Glycerol-Induced Renal Failure Model). The format is in vivo, rat (Wistar). The note with it: for Amount of creatinine in blood serum / Amount of uria nitrogen in blood serum: ip, 24 h after glycerol. The procedure: A renal failure is a state where the renal function is lowered and the homeostasis of a body fluid can be no longer maintained. It is known that an acute renal failure characteristic of uriniferous tubule disorder is caused by subcutaneous or intramuscular injection of glycerol to rats [Can. J. Physiol.
Male Wistar rats were kept deprived of water for 18 hours, and served for the test. A test compound was intraperitoneally administered to the rats (dosage: 0.1 ml/100 g). After 30 minutes, the rats were anesthetized with ether and 50% glycerol was subcutaneously administered (dosage: 0.8 ml/100 g) to the rats, pinching the dorsal skin. Twenty four hours after the administration of glycerol, the rats were anesthetized with ether and 5 ml of blood was collected from the abdominal aorta. The collected blood was allowed to stand for 30 minutes or longer and then centrifuged at 3,000 rpm for 10 minutes, and the amounts of the serum creatinine and the serum urine-nitrogen (UN) were determined by auto analyzer (Olympus AU510) [creatinine test (Jaffe method), UN test (enzyme method); both tests were used in Olympus AU500/550 exclusive reagent […].

Where [2] appears, read: 0.03 mg/kg, control 4.55 ± 0.24.
[3] abbreviates: 0.03 mg/kg, control 137.2 ± 5.0.
[4] abbreviates: 0.01 mg/kg, control 3.90 ± 0.24 (compounds 6, 7), 4.35 ± 0.23 (compound 3).
[5] abbreviates: 0.01 mg/kg, control 124.9 ± 7.5 (compounds 6, 7), 139.7 ± 10.2 (compound 3).

The compound `CCCn1c(=O)c2[nH]c(C34C[C@H]5CC3C[C@@H](C4)[C@H]5O)nc2n(CCC)c1=O` (relative stereo) [Compound 4, 8-(cis-9-hydroxy-3tricyclo[3.3.1.0^3,7]nonyl)-1,3-dipropylxanthine] showed a Ki on adenosine A1 receptor of 0.31 nM. In the test “Diuretic Effect” (0.01 mg/kg), the “Increase in amount of K+ excreted Δ(%)” value worked out at 43%, the “Increase in amount of Na+ excreted Δ(%)” value was determined as 167%, the “Increase in amount of urine Δ(%)” value stood at 200% and the “Na+/K+” value worked out at 1.86. For the same compound, in “Diuretic Effect” (1.6 mg/kg), the “Increase in amount of K+ excreted Δ(%)” value came to 35%, the “Increase in amount of Na+ excreted Δ(%)” value stood at 180%, the “Increase in amount of urine Δ(%)” value came to 232% and the “Na+/K+” value came out at 2.07. In addition, the “Amount of creatinine in blood serum” value in test [1] (setting [2]) worked out at 2.32 ± 0.48 mg/dL. The “Amount of uria nitrogen in blood serum” value in test [1] (setting [3]) was 75.6 ± 13.9 mg/dL.

Compound `CCCn1c(=O)c2[nH]c(C34CC5CC3CC(C4)C5=O)nc2n(CCC)c1=O` [Compound 1, 8-(9-Oxo-3-tricyclo[3.3.1.0^3,7]nonyl)-1,3-dipropylxanthine] showed a Ki at adenosine A1 receptor of 0.37 nM. Besides, in the test “Diuretic Effect” (0.01 mg/kg), the “Increase in amount of K+ excreted Δ(%)” value turned out to be 37%, the “Increase in amount of Na+ excreted Δ(%)” value stood at 144%, the “Increase in amount of urine Δ(%)” value came out at 149% and the “Na+/K+” value is on record as 1.78. Besides, in “Diuretic Effect” (1.6 mg/kg), the “Increase in amount of K+ excreted Δ(%)” value is listed as 36%, the “Increase in amount of Na+ excreted Δ(%)” value came out at 193%, the “Increase in amount of urine Δ(%)” value is given as 258% and the “Na+/K+” value was 2.15. For the same compound, the “Amount of creatinine in blood serum” value in test [1] (setting [2]) is 2.51 ± 0.41 mg/dL. Besides, the “Amount of uria nitrogen in blood serum” value in test [1] (setting [3]) is 81.4 ± 15.9 mg/dL.

Compound `CCCn1c(=O)c2[nH]c(C34CC5CC(C3)C(=O)C4C5)nc2n(CCC)c1=O` (stereo not shown) [Compound 2, 8-(6-Oxo-3-tricyclo[3.3.1.0^3,7]nonyl)-1,3-dipropylxanthine] displayed an inhibitory constant (Ki) on adenosine A1 receptor of 0.59 nM. Also, in the test “Diuretic Effect” (0.1 mg/kg), the “Increase in amount of K+ excreted Δ(%)” value worked out at 32%, the “Increase in amount of Na+ excreted Δ(%)” value is 177%, the “Increase in amount of urine Δ(%)” value turned out to be 211% and the “Na+/K+” value is 2.10. In “Diuretic Effect” (1.6 mg/kg), the “Increase in amount of K+ excreted Δ(%)” value came out at 8%, the “Increase in amount of Na+ excreted Δ(%)” value was 188%, the “Increase in amount of urine Δ(%)” value amounted to 241% and the “Na+/K+” value was determined as 2.67. Further, the “Amount of creatinine in blood serum” value in test [1] (setting [2]) is 2.51 ± 0.24 mg/dL. Besides, the “Amount of uria nitrogen in blood serum” value in test [1] (setting [3]) is 85.0 ± 8.7 mg/dL.

Take `CCCn1c(=O)c2[nH]c(C34CC5CC(C3)C(O)C4C5)nc2n(CCC)c1=O` (stereo not drawn) [Compound 5, 8-(Trans-6-hydroxy-3-tricyclo[3.3.1.0^3,7]nonyl)-1,3-dipropylxanthine]: the inhibitory constant (Ki) on adenosine A1 receptor stood at 0.24 nM. Besides, the “Amount of creatinine in blood serum” value in test [1] (0.1 mg/kg, control 4.55 ± 0.24 (compound 5), 4.35 ± 0.23 (compound 3)) worked out at 2.34 ± 0.24 mg/dL. Also, the “Amount of uria nitrogen in blood serum” value in test [1] (0.1 mg/kg, control 137.2 ± 5.0 (compound 5), 139.7 ± 10.2 (compound 3)) is 74.4 ± 7.7 mg/dL.

In turn, `CCCn1c(=O)c2[nH]c(C34CC5CC(CC3C5)C4)nc2n(CCCO)c1=O` [Compound 6, 3-(3-Hydroxypropyl)-8-(3-tricyclo[3.3.1.0^3,7]nonyl)-1-propylxanthine] yielded a Ki at adenosine A1 receptor of 0.96 nM. In addition, in the test “Diuretic Effect” (0.025 mg/kg), the “Increase in amount of K+ excreted Δ(%)” value was determined as 5.1%, the “Increase in amount of Na+ excreted Δ(%)” value is 111%, the “Increase in amount of urine Δ(%)” value is reported as 134% and the “Na+/K+” value is recorded as 2.00. In the test “Diuretic Effect” (0.1 mg/kg), the “Increase in amount of K+ excreted Δ(%)” value is on record as 24%, the “Increase in amount of Na+ excreted Δ(%)” value is given as 276%, the “Increase in amount of urine Δ(%)” value is reported as 396% and the “Na+/K+” value is 3.03. In addition, the “Amount of creatinine in blood serum” value in test [1] (setting [4]) was determined as 2.23 ± 0.15 mg/dL. The “Amount of uria nitrogen in blood serum” value in test [1] (setting [5]) was found to be 65.4 ± 5.6 mg/dL.

Take `CCCn1c(=O)c2[nH]c(C34CC5CC(CC3C5)C4)nc2n(CC(C)O)c1=O` (stereo not shown) [Compound 7, 3-(2-hydroxypropyl) -8-(3tricyclo[3.3.1.0^3,7]nonyl)-1-propylxanthine]: the Ki at adenosine A1 receptor is 6.1 nM. In “Diuretic Effect” (0.01 mg/kg), the “Increase in amount of K+ excreted Δ(%)” value is 33%, the “Increase in amount of Na+ excreted Δ(%)” value was 97%, the “Increase in amount of urine Δ(%)” value is reported as 140% and the “Na+/K+” value came out at 1.48. In addition, in “Diuretic Effect” (0.1 mg/kg), the “Increase in amount of K+ excreted Δ(%)” value came to 23%, the “Increase in amount of Na+ excreted Δ(%)” value was 138%, the “Increase in amount of urine Δ(%)” value worked out at 200% and the “Na+/K+” value came to 1.93. The “Amount of creatinine in blood serum” value in test [1] (setting [4]) is 2.28 ± 0.22 mg/dL. For the same compound, the “Amount of uria nitrogen in blood serum” value in test [1] (setting [5]) is 70.0 ± 9.8 mg/dL.

In the case of `CCCn1c(=O)c2[nH]c(C34CC5CC(CC(O)(C5)C3)C4)nc2n(CCC)c1=O` [Compound 8, 8-(3-Hydroxy-1-tricyclo[3.3.1.1^3,7]decyl)-1,3-dipropylxanthine], on adenosine A1 receptor, the Ki amounted to 5.1 nM.

`Cn1c(=O)c2[nH]cnc2n(C)c1=O` [aminophylline, reference compound]: the “effect of suppressing the increase” value in test [1] (i.p., 10 mg/kg) is on record as “weak effect of suppressing the increase”.

In the case of `NS(=O)(=O)c1cc(C(=O)O)c(NCc2ccco2)cc1Cl` [furosemide, reference compound], the “effect on serum creatinine” value in test [1] (i.p., 10 mg/kg) is listed as “tendency to increase the serum creatinine”.
